Read-outs that look alike come from different tables or passages of the source.
What was measured:
Diabrotica balteata = assay: Activity against Diabrotica balteata (Example B2); type: in vivo; settings: 144 h, maize seedlings sprayed, 400 ppm active ingredient, 2nd instar larvae, 6 days, read-out: percentage reduction in the population (% activity)
Protocol: Maize seedlings are sprayed with an aqueous emulsion spray mixture comprising 400 ppm of active ingredient and, after the spray coating has dried on, populated with 10 larvae (2nd instar) of Diabrotica balteata and introduced into a plastic container. 6 days later, the percentage reduction in the population (% activity) is determined by comparing the number of dead larvae between the treated and untreated plants.

Spodoptera littoralis [1] = assay: Activity against Spodoptera littoralis (Example B8); type: in vivo; settings: 72 h, young soya plants sprayed, 400 ppm active ingredient, 1st instar caterpillars, 3 days, read-out: percentage reduction in the population and in the feeding damage (% activity)
Protocol: Young soya plants are sprayed with an aqueous emulsion spray mixture comprising 400 ppm of active ingredient and, after the spray coating has dried on, populated with 10 caterpillars (1st instar) of Spodoptera littoralis and introduced into a plastic container. 3 days later, the percentage reduction in the population and in the feeding damage (% activity) are determined by comparing the number of dead caterpillars and the feeding damage between the treated and untreated plants.

Heliothis virescens = assay: Activity against Heliothis virescens, foliar application (Example B3); type: in vivo; settings: 144 h, young soya plants sprayed, 400 ppm active ingredient, 1st instar caterpillars, 6 days, read-out: percentage reduction in the population and in the feeding damage (% activity)
Protocol: Young soya plants are sprayed with an aqueous emulsion spray mixture comprising 400 ppm of active ingredient and, after the spray coating has dried on, populated with 10 caterpillars (1st instar) of Heliothis virescens and introduced into a plastic container. 6 days later, the percentage reduction in the population and in the feeding damage (% activity) are determined by comparing the number of dead caterpillars and the feeding damage between the treated and untreated plants.

Plutella xylostella = assay: Activity against Plutella xylostella (Example B7); type: in vivo; settings: 72 h, young cabbage plants sprayed, 400 ppm active ingredient, 3rd instar caterpillars, 3 days, read-out: percentage reduction in the population and in the feeding damage (% activity)
Protocol: Young cabbage plants are sprayed with an aqueous emulsion spray mixture comprising 400 ppm of active ingredient and, after the spray coating has dried on, populated with 10 caterpillars (3rd instar) of Plutella xylostella and introduced into a plastic container. 3 days later, the percentage reduction in the population and in the feeding damage (% activity) are determined by comparing the number of dead caterpillars and the feeding damage between the treated and untreated plants.

Spodoptera littoralis [2] = assay: Systemic insecticide test for Spodoptera littoralis (cotton leafworm) (Example B9); type: in vivo; settings: 96 h, read-out: percentage of dead (activity)
Protocol: Four day old maize seedlings (Zea mays, variety Stoneville) are placed individual in vials containing 24 ml water into which the chemical is diluted at 12.5 ppm. Seedlings are allowed to grow for six days. Subsequently leaves are cut and placed in a Petri dish (5 cm diameter), inoculated with twelve to fifteen 1st instar S. littoralis larvae and incubated for four days in a growth chamber (25° C., 50% r.h., 18:6 L:D photo period). Number of alive insects are counted and percentage of dead calculated. Tests were conducted with one replicate. In this test, compounds listed in the Tables above show good activity. In particular compounds T1.1.17, T1.1.89, T41.1.1, T35.1.1, T40.1.1, T30.1.1, T44.1.1, T31.1.1, T31.1.2, T30.1.2, T1.1.17, T1.1.89, T16.1.1, T36.1.1, T16.1.1, T3.7.1, T18.1.1, T43.1.1, T42.1.1, T30.1.2, T30.1.1, T40.1.1, T41.1.1, T45.1.1, T35.1.1, T1.1.73, T18.1.1, T36.1.1, T1.1.1 and T1.1.73 have an activity of over 80%.

Myzus persicae = assay: Activity against Myzus persicae, foliar application (Example B5); type: in vivo; settings: pea seedlings sprayed, 400 ppm active ingredient, 20°, 3 and 6 days, read-out: percentage reduction in the population (% activity)
Protocol: Pea seedlings are infected with Myzus persicae, subsequently sprayed with a spray mixture comprising 400 ppm of active ingredient and then incubated at 20°. 3 and 6 days later, the percentage reduction in the population (% activity) is determined by comparing the number of dead aphids between the treated and untreated plants.

Row | SMILES | inhibition at 400 ppm (Diabrotica balteata) | inhibition at 400 ppm (Spodoptera littoralis [1]) | inhibition at 400 ppm (Heliothis virescens) | inhibition at 400 ppm (Plutella xylostella) | pest or weed control at 12.5 ppm (Spodoptera littoralis [2]; in Zea mays) | melting point | pest or weed control at 12.5 ppm (Spodoptera littoralis [2]; maize seedlings in water with 12.5 ppm, 6 days growth, cut leaves, 1st instar larvae, 4 days, one replicate) | inhibition at 400 ppm (Myzus persicae)
1 | Cc1cc(Cl)cc(C(=O)NC(C)CS(C)(=N)=O)c1NC(=O)c1cc(C(F)(F)F)nn1-c1ncccc1Cl (stereo not shown) [T16.1.1] | > 80% | > 80% | > 80% | > 80% | > 80% | – | – | –
2 | CCS(=O)(CCNC(=O)c1cc(Cl)cc(C)c1NC(=O)c1cc(C(F)(F)F)nn1-c1ncccc1Cl)=NC(=O)C(F)(F)F (stereo not shown) [T31.1.2] | – | > 80% | – | > 80% | > 80% | – | – | –
3 | Cc1cc(Cl)cc(C(=O)NCCS(C)(=O)=NC(=O)C(F)(F)F)c1NC(=O)c1cc(C(F)(F)F)nn1-c1ncccc1Cl (stereo not shown) [T31.1.1] | – | > 80% | – | > 80% | > 80% | – | – | –
4 | Cc1cc(Cl)cc(C(=O)NCCOCCS(C)(=O)=NC(=O)C(F)(F)F)c1NC(=O)c1cc(C(F)(F)F)nn1-c1ncccc1Cl (stereo not shown) [T45.1.1] | – | – | – | > 80% | > 80% | – | – | –
5 | Cc1cc(Cl)cc(C(=O)NCCCCS(C)(=N)=O)c1NC(=O)c1cc(C(F)(F)F)nn1-c1ncccc1Cl (stereo not shown) [T40.1.1] | – | > 80% | – | > 80% | > 80% | – | – | –
6 | Cc1cc(Cl)cc(C(=O)NCc2ccccc2S(C)(=N)=O)c1NC(=O)c1cc(C(F)(F)F)nn1-c1ncccc1Cl (stereo not shown) [T34.1.1] | – | > 80% | – | > 80% | – | 235 to 238 °C | – | –
7 | Cc1cc(Cl)cc(C(=O)NCCS(C)(=N)=O)c1NC(=O)c1cc(C(F)(F)F)nn1-c1ncccc1Cl (stereo not shown) [T30.1.1] | – | > 80% | – | > 80% | > 80% | – | – | –
8 | Cc1cc(Cl)cc(C(=O)NCC(C)(C)CS(C)(=O)=NC(=O)C(F)(F)F)c1NC(=O)c1cc(C(F)(F)F)nn1-c1ncccc1Cl (stereo not shown) [T43.1.1] | – | > 80% | – | > 80% | > 80% | – | – | –
9 | Cc1cc(Cl)cc(C(=O)NCC(C)S(C)(=O)=NC(=O)C(F)(F)F)c1NC(=O)c1cc(C(F)(F)F)nn1-c1ncccc1Cl (stereo not shown) | – | – | – | – | – | 125 to 130 °C | – | –
10 | Cc1cc(C#N)cc(C(=O)NC(C)(C)CS(C)(=N)=O)c1NC(=O)c1cc(C(F)(F)F)nn1-c1ncccc1Cl (stereo not shown) [T1.1.73] | > 80% | > 80% | – | > 80% | > 80% | – | – | –
11 | Cc1cc(Cl)cc(C(=O)NCCCCS(C)(=O)=NC(=O)C(F)(F)F)c1NC(=O)c1cc(C(F)(F)F)nn1-c1ncccc1Cl (stereo not shown) [T41.1.1] | – | > 80% | – | > 80% | > 80% | – | – | –
12 | Cc1cc(Cl)cc(C(=O)NC(CS(C)(=N)=O)C(C)C)c1NC(=O)c1cc(C(F)(F)F)nn1-c1ncccc1Cl (stereo not shown) | – | – | – | – | – | 248 to 250 °C | – | –
13 | CCC(CS(C)(=N)=O)NC(=O)c1cc(Cl)cc(C)c1NC(=O)c1cc(C(F)(F)F)nn1-c1ncccc1Cl (stereo not shown) [T38.1.1] | – | – | – | > 80% | – | 180 to 185 °C | – | –
14 | CCC(CS(C)(=O)=NC(=O)C(F)(F)F)NC(=O)c1cc(Cl)cc(C)c1NC(=O)c1cc(C(F)(F)F)nn1-c1ncccc1Cl (stereo not shown) [T39.1.1] | – | – | – | > 80% | – | 170 to 174 °C | – | –
15 | COC(=O)C(CCS(C)(=N)=O)NC(=O)c1cc(Cl)cc(C)c1NC(=O)c1cc(C(F)(F)F)nn1-c1ncccc1Cl (stereo not shown) | – | – | – | – | – | 207 to 209 °C | – | –
16 | Cc1cc(Cl)cc(C(=O)NCCCCCCS(C)(=N)=O)c1NC(=O)c1cc(C(F)(F)F)nn1-c1ncccc1Cl (stereo not shown) [T46.1.1] | – | > 80% | > 80% | > 80% | – | 148 to 152 °C | – | –
17 | CCCCC(CS(C)(=N)=O)NC(=O)c1cc(Cl)cc(C)c1NC(=O)c1cc(C(F)(F)F)nn1-c1ncccc1Cl (stereo not shown) | – | – | – | – | – | 225 to 226 °C | – | –
18 | Cc1cc(Cl)cc(C(=O)NCC(C)S(C)(=N)=O)c1NC(=O)c1cc(C(F)(F)F)nn1-c1ncccc1Cl (stereo not shown) [T36.1.1] | – | > 80% | – | > 80% | > 80% | – | – | –
19 | Cc1cc(C#N)cc(C(=O)NC2(CS(C)(=O)=NC(=O)C(F)(F)F)CC2)c1NC(=O)c1cc(C(F)(F)F)nn1-c1ncccc1Cl (stereo not shown) | – | – | – | – | – | 187 to 189 °C | – | –
20 | Cc1cc(Cl)cc(C(=O)NCc2ccccc2S(C)(=O)=NC(=O)C(F)(F)F)c1NC(=O)c1cc(C(F)(F)F)nn1-c1ncccc1Cl (stereo not shown) [T35.1.1] | – | > 80% | > 80% | > 80% | – | – | > 80% | –
21 | Cc1cc(Cl)cc(C(=O)NCCOCCS(C)(=N)=O)c1NC(=O)c1cc(C(F)(F)F)nn1-c1ncccc1Cl (stereo not shown) [T44.1.1] | – | > 80% | – | > 80% | > 80% | – | – | –
22 | Cc1cc(Cl)cc(C(=O)NC(C)(C)CS(C)(=N)=O)c1NC(=O)c1cc(C(F)(F)F)nn1-c1ncccc1Cl (stereo not shown) [T1.1.1] | > 80% | > 80% | > 80% | > 80% | > 80% | – | – | > 80%
23 | Cc1cc(Cl)cc(C(=O)NC(C)(C)CS(C)(=N)=O)c1NC(=O)c1cc(OCC(F)(F)F)nn1-c1ncccc1Cl (stereo not shown) [T1.1.17] | > 80% | > 80% | – | > 80% | > 80% | – | – | –
24 | Cc1cc(C#N)cc(C(=O)NC(C)(C)CS(C)(=N)=O)c1NC(=O)c1cc(OCC(F)(F)F)nn1-c1ncccc1Cl (stereo not shown) [T1.1.89] | > 80% | > 80% | – | > 80% | > 80% | – | – | –
25 | Cc1cc(Cl)cc(C(=O)NCC(C)(C)CS(C)(=N)=O)c1NC(=O)c1cc(C(F)(F)F)nn1-c1ncccc1Cl (stereo not shown) [T42.1.1] | – | > 80% | – | > 80% | > 80% | – | – | –
26 | CCS(=N)(=O)CCNC(=O)c1cc(Cl)cc(C)c1NC(=O)c1cc(C(F)(F)F)nn1-c1ncccc1Cl (stereo not shown) [T30.1.2] | – | > 80% | – | > 80% | > 80% | – | – | –
27 | Cc1cc(Cl)cc(C(=O)NC(C)CS(C)(=O)=NC(=O)C(F)(F)F)c1NC(=O)c1cc(C(F)(F)F)nn1-c1ncccc1Cl (stereo not shown) [T18.1.1] | > 80% | > 80% | – | > 80% | > 80% | – | – | –
28 | Cc1cc(Cl)cc(C(=O)NCCCCCCS(C)(=O)=NC(=O)C(F)(F)F)c1NC(=O)c1cc(C(F)(F)F)nn1-c1ncccc1Cl (stereo not shown) [T47.1.1] | – | > 80% | – | > 80% | – | 110 to 113 °C | – | –

Source: patent publication US7893092B2, “Anthranilamide derivatives as insecticides” (Syngenta Crop Protection, Inc., priority 2004, dated 2011)
